Literature values in US20030162756A1, “Use of 2-hydroxy or 2-acetyloxy-4-trifluoromethylbenzoic acid derivatives as an agent for the treatment and prevention of mild cognitive impairment” (J. Uriach & CIA. S.A., priority 2001, published 2003).

System: platelet aggregation
Details: described in U.S. Pat. No. 4,096,252; cited from earlier work

With `O=C(O)c1ccc(C(F)(F)F)cc1O` [HTB, 2-hydroxy-4-trifluoromethylbenzoic acid] as the compound, how does the “activity as platelet anti-aggregant” value read?
Its value is “remarkable activity as platelet anti-aggregant”.
